Measurements as given in the NIST ThermoML archive (doi:10.1021/acs.jced.9b00424).

Key:
[1] = xn = mol fraction of the nth substance listed; conditions: x1 = 1; for viscosity: 100 kPa, Concentric cylinders viscometry; for viscosity / mass density: Liquid; for mass density: 101 kPa, Vibrating tube method; for surface tension liquid-gas: Pendant drop shape

CC(C)[C@@H]1CC[C@@H](C)C[C@H]1O [DL-menthol] + CCCCCCCC(=O)O
[1]
Conditions | mass density [kg/m3] | surface tension liquid-gas [mN/m] | viscosity [mPa·s]
303.15 K | 898.2 | – | 33.9
303.79 K | – | 21.82 | –
308.15 K | 892.2 | – | 23.19
308.76 K | – | 21.35 | –
313.15 K | 886.4 | – | 16.44
314.03 K | – | 20.44 | –
318.15 K | 881 | – | 12
318.76 K | – | 19.91 | –
323.15 K | 875.8 | – | 9
323.45 K | – | 19.18 | –
328.15 K | 870.8 | – | 6.92
328.55 K | – | 18.76 | –
333.09 K | – | 18.15 | –
333.15 K | 866.2 | – | 5.43
338.15 K | 861.7 | – | 4.34
343.15 K | 857.6 | – | 3.53
348.15 K | 853.7 | – | 2.92
353.15 K | 850 | – | 2.446

CC(C)[C@@H]1CC[C@@H](C)C[C@H]1O (racemic) [DL-menthol]
Conditions | mass density [kg/m3] | viscosity [mPa·s]
303.15 K, 100 kPa, Metastable liquid, Concentric cylinders viscometry | – | 33.9
303.15 K, 101 kPa, Metastable liquid, Vibrating tube method | 898.2 | –
308.15 K, 100 kPa, Concentric cylinders viscometry, Liquid | – | 23.19
308.15 K, 101 kPa, Vibrating tube method, Liquid | 892.2 | –
313.15 K, 100 kPa, Concentric cylinders viscometry, Liquid | – | 16.44
313.15 K, 101 kPa, Vibrating tube method, Liquid | 886.4 | –
318.15 K, 100 kPa, Concentric cylinders viscometry, Liquid | – | 12
318.15 K, 101 kPa, Vibrating tube method, Liquid | 881 | –
323.15 K, 100 kPa, Concentric cylinders viscometry, Liquid | – | 9
323.15 K, 101 kPa, Vibrating tube method, Liquid | 875.8 | –
328.15 K, 100 kPa, Concentric cylinders viscometry, Liquid | – | 6.92
328.15 K, 101 kPa, Vibrating tube method, Liquid | 870.8 | –
333.15 K, 100 kPa, Concentric cylinders viscometry, Liquid | – | 5.43
333.15 K, 101 kPa, Vibrating tube method, Liquid | 866.2 | –
338.15 K, 100 kPa, Concentric cylinders viscometry, Liquid | – | 4.34
338.15 K, 101 kPa, Vibrating tube method, Liquid | 861.7 | –
343.15 K, 100 kPa, Concentric cylinders viscometry, Liquid | – | 3.53
343.15 K, 101 kPa, Vibrating tube method, Liquid | 857.6 | –
348.15 K, 100 kPa, Concentric cylinders viscometry, Liquid | – | 2.92
348.15 K, 101 kPa, Vibrating tube method, Liquid | 853.7 | –
353.15 K, 100 kPa, Concentric cylinders viscometry, Liquid | – | 2.446
353.15 K, 101 kPa, Vibrating tube method, Liquid | 850 | –

surface tension liquid-gas [mN/m]
Conditions | 303.79 K | 308.76 K | 314.03 K | 318.76 K | 323.45 K | 328.55 K | 333.09 K
Metastable liquid, Pendant drop shape | 21.82 | – | – | – | – | – | –
Pendant drop shape, Liquid | – | 21.35 | 20.44 | 19.91 | 19.18 | 18.76 | 18.15

CCCCCCCC(=O)O [octanoic acid]
Liquid, Pendant drop shape
Conditions | surface tension liquid-gas [mN/m]
297.82 K | 30.95
302.68 K | 30.04
308.49 K | 28.56
312.93 K | 27.56
317.8 K | 26.06
322.15 K | 24.99
327.39 K | 24.46
331.72 K | 23.43

Liquid
Conditions | mass density [kg/m3] | viscosity [mPa·s]
298.15 K, 100 kPa, Concentric cylinders viscometry | – | 5.17
298.15 K, 101 kPa, Vibrating tube method | 917.2 | –
303.15 K, 100 kPa, Concentric cylinders viscometry | – | 4.54
303.15 K, 101 kPa, Vibrating tube method | 910.3 | –
308.15 K, 100 kPa, Concentric cylinders viscometry | – | 4.01
308.15 K, 101 kPa, Vibrating tube method | 903.8 | –
313.15 K, 100 kPa, Concentric cylinders viscometry | – | 3.59
313.15 K, 101 kPa, Vibrating tube method | 897.6 | –
318.15 K, 100 kPa, Concentric cylinders viscometry | – | 3.2
318.15 K, 101 kPa, Vibrating tube method | 891.7 | –
323.15 K, 100 kPa, Concentric cylinders viscometry | – | 2.88
323.15 K, 101 kPa, Vibrating tube method | 886.2 | –
328.15 K, 100 kPa, Concentric cylinders viscometry | – | 2.609
328.15 K, 101 kPa, Vibrating tube method | 880.9 | –
333.15 K, 100 kPa, Concentric cylinders viscometry | – | 2.372
333.15 K, 101 kPa, Vibrating tube method | 876 | –
338.15 K, 100 kPa, Concentric cylinders viscometry | – | 2.166
338.15 K, 101 kPa, Vibrating tube method | 871.4 | –
343.15 K, 100 kPa, Concentric cylinders viscometry | – | 1.985
343.15 K, 101 kPa, Vibrating tube method | 867.1 | –
348.15 K, 100 kPa, Concentric cylinders viscometry | – | 1.826
348.15 K, 101 kPa, Vibrating tube method | 863 | –
353.15 K, 100 kPa, Concentric cylinders viscometry | – | 1.683
353.15 K, 101 kPa, Vibrating tube method | 859.3 | –
